In PubChem BioAssay AID1259407 (Chemical Carcinogenesis Research Information System (CCRIS), 2018) one finds mutagenic call data, which are given here for five compounds.

The series concerns CCRIS mutagenicity, Ames/micronucleus/aberration tests. In words: CCRIS mutagenicity studies.
Setting [1] is: Test System: AMES SALMONELLA TYPHIMURIUM, Strain/Indicator: TA98, Metabolic Activation: NONE, Method: PREINCUBATION
Where [2] appears, read: Test System: AMES SALMONELLA TYPHIMURIUM, Strain/Indicator: TA100, Metabolic Activation: NONE, Method: PREINCUBATION
Where [3] appears, read: Test System: AMES SALMONELLA TYPHIMURIUM, Strain/Indicator: TA1535, Metabolic Activation: NONE, Method: PREINCUBATION
Where [4] appears, read: Test System: AMES SALMONELLA TYPHIMURIUM, Strain/Indicator: TA98, Metabolic Activation: NONE, Method: STANDARD PLATE.
Where [5] appears, read: Test System: AMES SALMONELLA TYPHIMURIUM, Strain/Indicator: TA98, Metabolic Activation: RAT, LIVER, S-9, AROCLOR 1254, Method: STANDARD PLATE.
[6] abbreviates: Test System: AMES SALMONELLA TYPHIMURIUM, Strain/Indicator: TA100, Metabolic Activation: NONE, Method: STANDARD PLATE.
The mark [7] stands for this setting: Test System: AMES SALMONELLA TYPHIMURIUM, Strain/Indicator: TA100, Metabolic Activation: RAT, LIVER, S-9, AROCLOR 1254, Method: STANDARD PLATE.
The mark [8] stands for this setting: Test System: AMES SALMONELLA TYPHIMURIUM, Strain/Indicator: TA1535, Metabolic Activation: NONE, Method: STANDARD PLATE.
[9] abbreviates: Test System: AMES SALMONELLA TYPHIMURIUM, Strain/Indicator: TA1537, Metabolic Activation: NONE, Method: STANDARD PLATE.
[10] abbreviates: Test System: AMES SALMONELLA TYPHIMURIUM, Strain/Indicator: TA1537, Metabolic Activation: RAT, LIVER, S-9, AROCLOR 1254, Method: STANDARD PLATE.

SMILES strings stand for the structures. Activity calls are given as the source filed them. The rule behind the calls is not given here.

For `Cl[C@@H]1C2(Cl)C3C4[C@@H]5O[C@@H]5[C@H]5C3[C@@](Cl)(C2(Cl)Cl)[C@]1(Cl)[C@@H]45` (stereo not given in full), the mutagenic call (Test System: AMES SALMONELLA TYPHIMURIUM, Strain/Indicator: TA97, Metabolic Activation: HAMSTER, LIVER, S-9, AROCLOR 1254 (10%), Method: PREINCUBATION) was “inactive; negative”; the mutagenic call (Test System: AMES SALMONELLA TYPHIMURIUM, Strain/Indicator: TA97, Metabolic Activation: HAMSTER, LIVER, S-9, AROCLOR 1254 (30%), Method: PREINCUBATION) was “active; positive”; the mutagenic call (Test System: AMES SALMONELLA TYPHIMURIUM, Strain/Indicator: TA97, Metabolic Activation: NONE, Method: PREINCUBATION) was “inactive; negative”; the mutagenic call (Test System: AMES SALMONELLA TYPHIMURIUM, Strain/Indicator: TA97, Metabolic Activation: RAT, LIVER, S-9, AROCLOR 1254 (10 OR 30%), Method: PREINCUBATION) was “inactive; negative”; the mutagenic call (Test System: AMES SALMONELLA TYPHIMURIUM, Strain/Indicator: TA98, Metabolic Activation: HAMSTER, LIVER, S-9, AROCLOR 1254 (10 OR 30%), Method: PREINCUBATION) is “inactive; negative”; the mutagenic call under setting [1] is “inactive; negative”. The mutagenic call (Test System: AMES SALMONELLA TYPHIMURIUM, Strain/Indicator: TA98, Metabolic Activation: RAT, LIVER, S-9, AROCLOR 1254 (10 OR 30%), Method: PREINCUBATION) was “inactive; negative”; the mutagenic call (Test System: AMES SALMONELLA TYPHIMURIUM, Strain/Indicator: TA100, Metabolic Activation: HAMSTER, LIVER, S-9, AROCLOR 1254 (10 OR 30%), Method: PREINCUBATION) was “inactive; negative”; the mutagenic call under setting [2] is “inactive; negative”; the mutagenic call (Test System: AMES SALMONELLA TYPHIMURIUM, Strain/Indicator: TA100, Metabolic Activation: RAT, LIVER, S-9, AROCLOR 1254 (10 OR 30%), Method: PREINCUBATION) was “inactive; negative”; the mutagenic call (Test System: AMES SALMONELLA TYPHIMURIUM, Strain/Indicator: TA1535, Metabolic Activation: HAMSTER, LIVER, S-9, AROCLOR 1254 (10 OR 30%), Method: PREINCUBATION) is “inactive; negative”; the mutagenic call under setting [3] is “inactive; negative”. Also, under “Test System: AMES SALMONELLA TYPHIMURIUM, Strain/Indicator: TA1535, Metabolic Activation: RAT, LIVER, S-9, AROCLOR 1254 (10 OR 30%), Method: PREINCUBATION”, the mutagenic call was “inactive; negative”.

Regarding `Cc1nnc2n1-c1ccc(Cl)cc1C(c1ccccc1Cl)=NC2`, the mutagenic call is “inactive; negative” under setting [4]; “inactive; negative” under setting [5]; “inactive; negative” under setting [6]; “inactive; negative” under setting [7]; “inactive; negative” (Test System: AMES SALMONELLA TYPHIMURIUM, Strain/Indicator: TA102, Metabolic Activation: NONE, Method: STANDARD PLATE); “inactive; negative” (Test System: AMES SALMONELLA TYPHIMURIUM, Strain/Indicator: TA102, Metabolic Activation: RAT, LIVER, S-9, AROCLOR 1254, Method: STANDARD PLATE). For the same compound, the mutagenic call was “inactive; negative” under setting [8]; “inactive; negative” (Test System: AMES SALMONELLA TYPHIMURIUM, Strain/Indicator: TA1535, Metabolic Activation: RAT, LIVER, S-9, AROCLOR 1254, Method: STANDARD PLATE); “inactive; negative” under setting [9]; “inactive; negative” under setting [10]; “inactive; negative” (Test System: E. COLI, Strain/Indicator: WP2 UVRA, Metabolic Activation: NONE, Method: STANDARD PLATE); “inactive; negative” (Test System: E. COLI, Strain/Indicator: WP2 UVRA, Metabolic Activation: RAT, LIVER, S-9, AROCLOR 1254, Method: STANDARD PLATE).

On to `N#[N+]c1cccc2c1C(=O)c1ccccc1C2=O`, for which the mutagenic call under setting [4] was “inactive; negative”; the mutagenic call under setting [5] is “active; positive”; the mutagenic call under setting [6] is “inactive; negative”; the mutagenic call under setting [7] is “active; positive”; the mutagenic call under setting [8] was “inactive; negative”; the mutagenic call under setting [9] is “active; positive”. In addition, the mutagenic call under setting [10] is “active; positive”.

As to `Nc1cc(Cl)cc(Cl)c1O`, the mutagenic call is, setting by setting: under setting [1], “inactive; negative”; under setting [4], “inactive; negative”; under setting [2], “inactive; negative”; under setting [6], “inactive; negative”; (Test System: CHINESE HAMSTER V-79, Strain/Indicator: V-79/6-THIOGUANINE, Metabolic Activation: NONE) “inactive; negative”.

For the compound `CC1=CC(=C(c2ccc(N)cc2)c2ccc(N)cc2)C=CC1=N`, the mutagenic call under setting [1] was “inactive; negative”; the mutagenic call (Test System: AMES SALMONELLA TYPHIMURIUM, Strain/Indicator: TA98, Metabolic Activation: RAT LIVER S-9, PHENOBARBITAL AND BETA-NAPHTHOFLAVONE, Method: PREINCUBATION) is “inactive; negative”; the mutagenic call under setting [2] was “inactive; negative”; the mutagenic call (Test System: AMES SALMONELLA TYPHIMURIUM, Strain/Indicator: TA100, Metabolic Activation: RAT LIVER S-9, PHENOBARBITAL AND BETA-NAPHTHOFLAVONE, Method: PREINCUBATION) was “inactive; negative”; the mutagenic call (Test System: AMES SALMONELLA TYPHIMURIUM, Strain/Indicator: TA100, Method: PREINCUBATION) is “active; positive”; the mutagenic call under setting [3] is “inactive; negative”. For the same compound, the mutagenic call is, setting by setting: (Test System: AMES SALMONELLA TYPHIMURIUM, Strain/Indicator: TA1535, Metabolic Activation: RAT LIVER S-9, PHENOBARBITAL AND BETA-NAPHTHOFLAVONE, Method: PREINCUBATION) “inactive; negative”; (Test System: AMES SALMONELLA TYPHIMURIUM, Strain/Indicator: TA1537, Metabolic Activation: NONE, Method: PREINCUBATION) “inactive; negative”; (Test System: AMES SALMONELLA TYPHIMURIUM, Strain/Indicator: TA1537, Metabolic Activation: RAT LIVER S-9, PHENOBARBITAL AND BETA-NAPHTHOFLAVONE, Method: PREINCUBATION) “inactive; negative”; (Test System: AMES SALMONELLA TYPHIMURIUM, Strain/Indicator: TA1538, Metabolic Activation: NONE, Method: PREINCUBATION) “inactive; negative”; (Test System: AMES SALMONELLA TYPHIMURIUM, Strain/Indicator: TA1538, Metabolic Activation: RAT LIVER S-9, PHENOBARBITAL AND BETA-NAPHTHOFLAVONE, Method: PREINCUBATION) “inactive; negative”; (Test System: E.COLI, Strain/Indicator: WP2UVRA, Metabolic Activation: NONE, Method: PREINCUBATION) “inactive; negative”. Under “Test System: E.COLI, Strain/Indicator: WP2UVRA, Metabolic Activation: RAT LIVER S-9, PHENOBARBITAL AND BETA-NAPHTHOFLAVONE, Method: PREINCUBATION”, the mutagenic call is “inactive; negative”.
